For this assay, the target named is T1, HIV-integrase (Human immunodeficiency virus type 1 group M subtype B, UniProt P12497).
T1 construct: Recombinant integrase (0.26 ng) was incubated with the beads
Briefly: HIV-Integrase Inhibition Activity (SPA bead strand-transfer assay). In kind it is biochemical. The note with it: Table 1; read-out: Activity (HIV-integrase inhibition, IC50 class). Put shortly:
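Biotin-labelled substrate DNA (5 pmole) bound to streptavidin SPA beads, preloaded with recombinant integrase (0.26 ng) for 90 min at 37° C, then washed. Inhibitors and 0.1 fmol P33-labelled target DNA added; reaction stopped with 10 mM EDTA. Integration read as scintillation CPM.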

A value given as a limit tells only on which side of the number the result lay.

As a reminder, the IC50 is the concentration at which inhibition is half-maximal. Take `COc1ccc(OC)c(CNC(=O)c2nc3n(c(=O)c2O)CCOC3(C)C)c1` [Example 235, Pyrimido[2,1-c][1,4]oxazine-2-carboxamide, N-[(2,5-dimethoxyphenyl)methyl]-4,6,7,9-tetrahydro-3-hydroxy-9,9-dimethyl-4-oxo-]: the half-maximal inhibitory concentration (IC50) is 2 to 100 nM. To `Cc1c(Cl)cccc1CNC(=O)c1nc2n(c(=O)c1O)CCOC2(C)C` [Example 236, Pyrimido[2,1-c][1,4]oxazine-2-carboxamide, N-[(3-chloro-2-methylphenyl)methyl]-4,6,7,9-tetrahydro-3-hydroxy-9,9-dimethyl-4-oxo-] belongs 2 to 100 nM; to `CC1(C)OCCn2c1nc(C(=O)NCc1cc(F)cc(C(F)(F)F)c1)c(O)c2=O` [Example 237, Pyrimido[2,1-c][1,4]oxazine-2-carboxamide, N-[[3-fluoro-5-(trifluoromethyl)phenyl]methyl]-4,6,7,9-tetrahydro-3-hydroxy-9,9-dimethyl-4-oxo-], 2 to 100 nM; to `CC1(C)OCCn2c1nc(C(=O)NCc1cccc(F)c1F)c(O)c2=O` [Example 238, Pyrimido[2,1-c][1,4]oxazine-2-carboxamide, N-[(2,3-difluorophenyl)methyl]-4,6,7,9-tetrahydro-3-hydroxy-9,9-dimethyl-4-oxo-], 2 to 100 nM. `COc1ccc(CNC(=O)c2nc3n(c(=O)c2O)CCOC3(C)C)cc1Cl` [Example 239, Pyrimido[2,1-c][1,4]oxazine-2-carboxamide, N-[(3-chloro-4-methoxyphenyl)methyl]-4,6,7,9-tetrahydro-3-hydroxy-9,9-dimethyl-4-oxo-]: the IC50 lay in the range of 2 to 100 nM. To `Cc1ccc(CNC(=O)c2nc3n(c(=O)c2O)CCOC3(C)C)cc1` [Example 240, Pyrimido[2,1-c][1,4]oxazine-2-carboxamide, 4,6,7,9-tetrahydro-3-hydroxy-9,9-dimethyl-N-[(4-methylphenyl)methyl]-4-oxo-] belongs 2 to 100 nM. The value for `CC1(C)OCCn2c1nc(C(=O)NCc1ccc(F)c(C(F)(F)F)c1)c(O)c2=O` [Example 241, Pyrimido[2,1-c][1,4]oxazine-2-carboxamide, N-[[4-fluoro-3-(trifluoromethyl)phenyl]methyl]-4,6,7,9-tetrahydro-3-hydroxy-9,9-dimethyl-4-oxo-] was 2 to 100 nM; that for `COc1ccccc1CNC(=O)c1nc2n(c(=O)c1O)CCOC2(C)C` [Example 242, Pyrimido[2,1-c][1,4]oxazine-2-carboxamide, 4,6,7,9-tetrahydro-3-hydroxy-N-[(2-methoxyphenyl)methyl]-9,9-dimethyl-4-oxo-] was 2 to 100 nM; that for `CCOc1ccccc1CNC(=O)c1nc2n(c(=O)c1O)CCOC2(C)C` [Example 243, Pyrimido[2,1-c][1,4]oxazine-2-carboxamide, N-[(2-ethoxyphenyl)methyl]-4,6,7,9-tetrahydro-3-hydroxy-9,9-dimethyl-4-oxo-] was 2 to 100 nM.

As to `COc1ccc(CNC(=O)c2nc3n(c(=O)c2O)CCOC3(C)C)cc1` [Example 244, Pyrimido[2,1-c][1,4]oxazine-2-carboxamide, 4,6,7,9-tetrahydro-3-hydroxy-N-[(4-methoxyphenyl)methyl]-9,9-dimethyl-4-oxo-], the IC50 is 2 to 100 nM. The value for `COc1cc(CNC(=O)c2nc3n(c(=O)c2O)CCOC3(C)C)ccc1F` [Example 245, Pyrimido[2,1-c][1,4]oxazine-2-carboxamide, N-[(4-fluoro-3-methoxyphenyl)methyl]-4,6,7,9-tetrahydro-3-hydroxy-9,9-dimethyl-4-oxo-] was 2 to 100 nM; that for `CC1(C)OCCn2c1nc(C(=O)NCc1ccc(F)cc1C(F)(F)F)c(O)c2=O` [Example 246, Pyrimido[2,1-c][1,4]oxazine-2-carboxamide, N-[[4-fluoro-2-(trifluoromethyl)phenyl]methyl]-4,6,7,9-tetrahydro-3-hydroxy-9,9-dimethyl-4-oxo-] was 2 to 100 nM; that for `CCc1cc(CNC(=O)c2nc3n(c(=O)c2O)CCOC3(C)C)ccc1F` [Example 247, Pyrimido[2,1-c][1,4]oxazine-2-carboxamide, N-[(3-ethyl-4-fluorophenyl)methyl]-4,6,7,9-tetrahydro-3-hydroxy-9,9-dimethyl-4-oxo-] was 2 to 100 nM. Consider `Cc1ccc(CNC(=O)c2nc3n(c(=O)c2O)CCOC3(C)C)cc1F` [Example 248, Pyrimido[2,1-c][1,4]oxazine-2-carboxamide, N-[(3-fluoro-4-methylphenyl)methyl]-4,6,7,9-tetrahydro-3-hydroxy-9,9-dimethyl-4-oxo-], for which the IC50 was in the range of 2 to 100 nM.

For the compound `CCOc1cccc(CNC(=O)c2nc3n(c(=O)c2O)CCOC3(C)C)c1` [Example 249, Pyrimido[2,1-c][1,4]oxazine-2-carboxamide, N-[(3-ethoxyphenyl)methyl]-4,6,7,9-tetrahydro-3-hydroxy-9,9-dimethyl-4-oxo-], the IC50 was 2 to 100 nM.

In the case of `CC1(C)OCCn2c1nc(C(=O)NCc1ccc3c(c1)CCO3)c(O)c2=O` [Example 250, Pyrimido[2,1-c][1,4]oxazine-2-carboxamide, N-[(2,3-dihydro-5-benzofuranyl)methyl]-4,6,7,9-tetrahydro-3-hydroxy-9,9-dimethyl-4-oxo-], the IC50 was 2 to 100 nM. The value for `Cc1ccc(Cl)cc1CNC(=O)c1nc2n(c(=O)c1O)CCOC2(C)C` [Example 251, Pyrimido[2,1-c][1,4]oxazine-2-carboxamide, N-[(5-chloro-2-methylphenyl)methyl]-4,6,7,9-tetrahydro-3-hydroxy-9,9-dimethyl-4-oxo-] was 2 to 100 nM; that for `CC1(C)OCCn2c1nc(C(=O)NCc1cccc(-n3cccn3)c1)c(O)c2=O` [Example 252, Pyrimido[2,1-c][1,4]oxazine-2-carboxamide, 4,6,7,9-tetrahydro-3-hydroxy-9,9-dimethyl-4-oxo-N-[[3-(1H-pyrazol-1-yl)phenyl]methyl]-] was 100 to 1000 nM.

In the case of `CC1(C)OCCn2c1nc(C(=O)NCc1ccc(N3CCOCC3)cc1)c(O)c2=O` [Example 253, Pyrimido[2,1-c][1,4]oxazine-2-carboxamide, 4,6,7,9-tetrahydro-3-hydroxy-9,9-dimethyl-N-[[4-(4-morpholinyl)phenyl]methyl]-4-oxo-], the IC50 was greater than 1000 nM.

Turning to `CC1(C)OCCn2c1nc(C(=O)NCc1ccccc1N1CCCCC1)c(O)c2=O` [Example 254, Pyrimido[2,1-c][1,4]oxazine-2-carboxamide, 4,6,7,9-tetrahydro-3-hydroxy-9,9-dimethyl-4-oxo-N-[[2-(1-piperidinyl)phenyl]methyl]-], the IC50 was in the range of 2 to 100 nM. To `CC1(C)OCCn2c1nc(C(=O)NCc1ccccc1N)c(O)c2=O` [Example 255, Pyrimido[2,1-c][1,4]oxazine-2-carboxamide, N-[(2-aminophenyl)methyl]-4,6,7,9-tetrahydro-3-hydroxy-9,9-dimethyl-4-oxo-] belongs 2 to 100 nM; to `CC1(C)OCCn2c1nc(C(=O)NCc1ccc(N)cc1)c(O)c2=O` [Example 256, Pyrimido[2,1-c][1,4]oxazine-2-carboxamide, N-[(4-aminophenyl)methyl]-4,6,7,9-tetrahydro-3-hydroxy-9,9-dimethyl-4-oxo-], 100 to 1000 nM.

`CN(C)c1ccc(CNC(=O)c2nc3n(c(=O)c2O)CCOC3(C)C)cc1` [Example 257, Pyrimido[2,1-c][1,4]oxazine-2-carboxamide, N-[[4-(dimethylamino)phenyl]methyl]-4,6,7,9-tetrahydro-3-hydroxy-9,9-dimethyl-4-oxo-]: the IC50 lay in the range of 2 to 100 nM.

As to `CC1(C)OCCn2c1nc(C(=O)NCc1ccccc1O)c(O)c2=O` [Example 258, Pyrimido[2,1-c][1,4]oxazine-2-carboxamide, 4,6,7,9-tetrahydro-3-hydroxy-N-[(2-hydroxyphenyl)methyl]-9,9-dimethyl-4-oxo-], the 50% inhibitory concentration (IC50) was 2 to 100 nM. The value for `CC1(C)OCCn2c1nc(C(=O)NCc1ccc(O)cc1)c(O)c2=O` [Example 259, Pyrimido[2,1-c][1,4]oxazine-2-carboxamide, 4,6,7,9-tetrahydro-3-hydroxy-N-[(4-hydroxyphenyl)methyl]-9,9-dimethyl-4-oxo-] was 2 to 100 nM; that for `CC1(C)OCCn2c1nc(C(=O)NCc1ccccc1N1CCOCC1)c(O)c2=O` [Example 260, Pyrimido[2,1-c][1,4]oxazine-2-carboxamide, 4,6,7,9-tetrahydro-3-hydroxy-9,9-dimethyl-N-[[2-(4-morpholinyl)phenyl]methyl]-4-oxo-] was 2 to 100 nM; that for `CC(C)(C)OC(=O)N1CCN(c2ccccc2CNC(=O)c2nc3n(c(=O)c2O)CCOC3(C)C)CC1` [Example 261, 1-piperazinecarboxylic acid, 4-[2-[[[(4,6,7,9-tetrahydro-3-hydroxy-9,9-dimethyl-4-oxopyrimido[2,1-c][1,4]oxazin-2-yl)carbonyl]amino]methyl]phenyl]-, 1,1-dimethylethyl ester] was 2 to 100 nM.

For `CC(C)Oc1ccccc1CNC(=O)c1nc2n(c(=O)c1O)CCOC2(C)C` [Example 262, Pyrimido[2,1-c][1,4]oxazine-2-carboxamide, 4,6,7,9-tetrahydro-3-hydroxy-9,9-dimethyl-N-[[2-(1-methylethoxy)phenyl]methyl]-4-oxo-], the IC50 was 2 to 100 nM.

As to `CC(C)Oc1cccc(CNC(=O)c2nc3n(c(=O)c2O)CCOC3(C)C)c1` [Example 263, Pyrimido[2,1-c][1,4]oxazine-2-carboxamide, 4,6,7,9-tetrahydro-3-hydroxy-9,9-dimethyl-N-[[3-(1-methylethoxy)phenyl]methyl]-4-oxo-], the half-inhibitory concentration (IC50) is 2 to 100 nM. The value for `COC(=O)c1cccc(CNC(=O)c2nc3n(c(=O)c2O)CCOC3(C)C)c1` [Example 264, Benzoic acid, 3-[[[(4,6,7,9-tetrahydro-3-hydroxy-9,9-dimethyl-4-oxopyrimido[2,1-c][1,4]oxazin-2-yl)carbonyl]amino]methyl]-, methyl ester] was 2 to 100 nM. The value for `CC1(C)OCCn2c1nc(C(=O)NCc1ccc(C#N)cc1)c(O)c2=O` [Example 265, Pyrimido[2,1-c][1,4]oxazine-2-carboxamide, N-[(4-cyanophenyl)methyl]-4,6,7,9-tetrahydro-3-hydroxy-9,9-dimethyl-4-oxo-] was 2 to 100 nM.

Source of the values: patent US7491819B1 (priority 2004, dated 2009).
